According to article PMC12346966, “Targeting the Cell Wall Salvage Pathway: Dual-Enzyme Inhibition of AmgK and MurU as a Strategy Against Antibiotic Resistance” (International Journal of Molecular Sciences, 2025):

Key:
PaMurU [1] = target: T1, PaMurU (Pseudomonas aeruginosa, UniProt Q9I5U0); test: SUPR-DSF thermal shift (no Kd); nucleotide preference in enzyme assay; format: binding
T1 construct: gene murU

PaMurU [2] = target: T1, PaMurU; test: malachite green dual-enzyme assay IC50; target assigned by ESI-MS; format: biochemical
PaMurU [3] = target: T1, PaMurU; test: malachite green dual-enzyme assay IC50; target assigned by ESI-MS; SUPR-DSF shift +[…] °C; format: biochemical

T1 sequence (Q9I5U0 whole entry): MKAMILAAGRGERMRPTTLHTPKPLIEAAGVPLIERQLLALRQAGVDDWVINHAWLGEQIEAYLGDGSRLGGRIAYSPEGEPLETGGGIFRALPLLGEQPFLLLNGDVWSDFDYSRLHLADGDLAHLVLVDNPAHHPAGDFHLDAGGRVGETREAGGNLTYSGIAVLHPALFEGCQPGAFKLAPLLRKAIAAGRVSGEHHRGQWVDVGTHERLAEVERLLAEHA

SMILES: O=c1ccn([C@@H]2O[C@H](COP(=O)(O)OP(=O)(O)OP(=O)(O)O)[C@@H](O)[C@H]2O)c(=O)[nH]1 [UTP]
- ΔTm (PaMurU [1]): 3.86 °C

SMILES: CCCCCCCCCCCCCCCC[N+](C)(C)C [compound 1, CTAB]
- IC50 (PaMurU [2]): 8.25 µM

SMILES: Nc1c(/N=N/c2ccc(-c3ccc(/N=N/c4cc(S(=O)(=O)O)c5ccccc5c4N)cc3)cc2)cc(S(=O)(=O)O)c2ccccc12 [compound 2, 4-amino-3-[[4-[4-[(1-amino-4-sulfonatonaphthalen-2-yl)diazenyl]phenyl]phenyl]diazenyl] naphthalene-1-sulfonate]
- IC50 (PaMurU [3]): 14 µM
